According to publication PMC9822434, “Estradiol-Based Salicylaldehyde (Thio)Semicarbazones and Their Copper Complexes with Anticancer, Antibacterial and Antioxidant Activities” (Molecules, 2022):
Like-named read-outs stand apart in the source and are kept apart here.

Tests used:
DU-145 = assay: MTT cytotoxicity assay; type: cell-based, human; details: DU-145, MTT; for IC50: 24 h incubation time
Protocol: (§1) To test the biological effects of the Cu(II) complexes and the ligands on human cancer cells, DU-145 prostate, A549 lung, and MCF-7 breast adenocarcinoma cells, as well as the multidrug-resistant MCF-7 KCR breast cancer cells were utilized. All the cell lines were maintained in RPMI-1640 media (Biosera, Nuaille, France) complemented with 10% fetal bovine serum (FBS), 2 mM L-glutamine, 0.01% streptomycin and 0.005% penicillin, (Biosera, Nuaille, France) and were cultured under standard conditions in a 37 °C incubator at 5% CO2 and 95% humidity. The cell lines were originally obtained from ATCC.
(§2) The effect of the complexes and of their ligands alone on the viability (on the metabolic activity) of human cancer cells was assessed by MTT assay. The tested compounds were dissolved in 90% (v/v) DMSO/H2O at 10 mM concentration. Equimolar solutions of the ligand CuCl2 salt were used for the cytotoxicity assays. The metal salts without ligands were also tested. For this, 1 × 10^4 cells/well were seeded into 96-well plates and left to grow overnight. On the following day, cells were exposed to increasing concentrations of each compound (0; 2.5; 5; 10; 15; 20 µM). After a 24 h incubation, cells were washed with PBS buffer and then incubated with 0.5 mg/mL MTT (Sigma-Aldrich, St Louis, Missouri, MO, USA) for 1 h at 37 °C. The formazan crystals were solubilized in DMSO (Molar Chemicals, Halásztelek, Hungary), and the absorbance of samples was determined at 570 nm using a Synergy HTX plate reader (BioTek, Winooski, Vermont, VT, USA). Absorption corresponding to the untreated control samples was considered as 100%.

MCF-7 KCR = assay: MTT cytotoxicity assay; type: cell-based, human; details: for IC50: 24 h incubation time
Protocol: as §1, §2

A549 = assay: MTT cytotoxicity assay; type: cell-based, human; details: for IC50: 24 h incubation time
Protocol: as §1, §2

MCF-7 = assay: MTT cytotoxicity assay; type: cell-based, human; details: MCF-7, MTT; for IC50: 24 h incubation time
Protocol: as §1, §2

S. aureus ATCC 25928 = assay: MIC determination; type: cell-based, Staphylococcus aureus; details: Gram-positive S. aureus ATCC 25928; Mueller Hinton Broth
Protocol: (§3) Klebsiella pneumoniae (ATCC 49619), Escherichia coli (ATCC 25922), Staphylococcus aureus (ATCC 25928) and Enterococcus faecalis (ATCC 29212) strains were used as Gram-negative and Gram-positive bacterial cultures. The stock solutions of the tested compounds (dissolved in 90% (v/v) DMSO/H2O at 10 mM concentration) were diluted in 100 μL of Mueller Hinton Broth, and then two-fold serial dilutions were performed. As a starting point, 100 μM concentration of the compounds was used. Then, 10^−4 dilution of an overnight bacterial culture in 100 μL of medium was added to each well, with the exception of the medium control wells. Minimum inhibitory concentration (MIC) values of compounds were determined according to our previous work.

E. faecalis ATCC 29212 = assay: MIC determination; type: cell-based, Enterococcus faecalis; details: Gram-positive E. faecalis ATCC 29212; Mueller Hinton Broth
Protocol: as §3

[1] = DPPH free radical scavenging assay; details: for % Scavenging Effect: DPPH:compound = 1:1 ratio after 30 min, ethanol; for % Scavenging Effect / TEAC (Trolox equivalent antioxidant capacity): 25 °C; for IC50: in ethanol, T = 25 °C, cDPPH = 50 µM, ccompound = 5−50 µM; for TEAC (Trolox equivalent antioxidant capacity): DPPH assay in ethanol
Protocol: The DPPH (Sigma-Aldrich) free radical scavenging capacity was studied at 25.0 ± 0.1 °C on an Agilent Cary 3500 spectrophotometer with tightly closed tandem cuvette according to our approach with some modifications. The stock solution of DPPH (100 µM) was prepared in ethanol, and 0.5 mL of this solution was added to one pocket of the cuvette and 0.5 mL of the tested compound in different concentrations in ethanol was added to another. The final concentration of the studied compounds was in the range 5–50 µM, where for DPPH concentration, it was always 50 µM. A standard compound Trolox (Sigma-Aldrich) was used as a positive control. The percentage of the antioxidant activity (AA), IC50 values (the concentration of compound at which it reduced 50% of DPPH) and Trolox equivalent antioxidant capacity (TEAC) were calculated.

[2] = direct redox reaction of the Cu(II) complexes with GSH (UV–vis, anaerobic); type: physicochemical; details: Cu(II) complex (25 µM) of the named ligand with GSH (1.25 mM), pH 7.4, anaerobic, 30% (v/v) DMSO/H2O, 25.0 °C
Protocol: (§4) The redox reaction of the Cu(II) complexes with GSH and ascorbic acid was studied at 25.0 ± 0.1 °C, at pH 7.40 (10 mM HEPES with 0.1 M KCl) on an Agilent Cary 8454 diode array spectrophotometer using a special, tightly closed tandem cuvette (Hellma Tandem Cell, 238-QS). The complex and the reducing agent were separated until the reaction was triggered. Both isolated pockets of the tandem cuvette were completely deoxygenated by bubbling argon for 10 min before mixing the reactants. Spectra were recorded before and then immediately after the mixing, and changes were followed till no further absorbance change was observed. The stock solutions of the reducing agents and the complexes were freshly prepared every day.
During the calculations, the absorbance (A)−time (t) curves were fitted and analyzed at the λmax of the complex. (A0 − Afinal) × e ^(−a×t) + Afinal equation was used where A0, Afinal and a parameters were refined and accepted at the minimal value of the weighted sum of squared residuals (difference between the measured and calculated absorbance values) at the given wavelength. Then observed rate constants (kobs) of the redox reaction were obtained from the data points of the simulated absorbance–time curves as the slope of the ln(A/A0) versus t plots.

[3] = cyclic voltammetry of Cu(II)-(T)SC (1:1) systems; type: physicochemical; details: 90% (v/v) DMSO/H2O, pH 7.40 (10 mM HEPES), 10 mV/s, 25 °C, I = 0.1 M (nBu4NPF6)
Protocol: Cyclic voltammograms of TSCs derivatives and their Cu(II) complexes at 25.0 ± 0.1 °C were recorded. nBu4NPF6 was used as a supporting electrolyte, and measurements were performed at pH 7.4. The complexes were obtained by mixing the ligand dissolved in DMSO with aqueous solution of CuCl2 in 1:1 ratio. The final concentration of stock was 1 mM. Measurements were performed on a conventional three-electrode system under argon atmosphere using an Autolab PGSTAT 204 potentiostat/galvanostat monitored with Metrohm’s Nova software. Samples were purged for 10 min with argon before recording the cyclic voltammograms. Platinum electrode was used as the working and auxiliary electrode and Ag/AgCl/3 M KCl as the reference electrode. The electrochemical system was calibrated with an aqueous solution of K3[Fe(CN)6] (E1/2 = +0.458 V vs. NHE). Redox potentials were obtained at 10 mV/s scan rate in the range of −1.3 to +0.8 V.

[4] = direct redox reaction of the Cu(II) complexes with ascorbic acid (UV–vis, anaerobic); type: physicochemical; details: Cu(II) complex 25 µM, 50 equiv. ascorbic acid, pH 7.4, 30% (v/v) DMSO/H2O
Protocol: as §4

[5] = tested on: A549, MCF-7, MCF-7 KCR and DU-145 cells; assay: γH2AX immunostaining (DNA double-strand breaks); type: cell-based, human; details: 20 µM, 3 h
Protocol: In order to determine the degree of DNA damage induced by the treatments, DNA double-strand breaks were visualized by γH2AX immunostaining. For this, 1 × 10^5 cells/well were seeded onto coverslips in 24-well plates. […] Then, cells were fixed with 4% formaldehyde (Molar Chemicals, Halásztelek, Hungary), permeabilized with 0.3% Triton-X-100 (Calbiochem, Merck Millipore, Darmstadt, Germany) and were blocked using 5% bovine serum albumin (BSA) (Sigma-Aldrich, St. Louis, MO, USA). Then, the samples were incubated with anti-γH2AX antibody (Thermo Fisher Scientific, Waltham, MA, USA) in 1:300 dilution followed by Alexa 488 fluorophore-conjugated goat anti-mouse secondary antibody (Abcam, Cambridge, UK) in 1:600 dilution. The fluorescence intensity of the stained samples was detected by an Olympus FV10i confocal microscope.

DU-145 cells = assay: DCFDA staining (intracellular ROS); type: cell-based, human; details: DU-145, 20 µM, 6 h
Protocol: (§5) DCFDA staining assay was performed to measure the total intracellular ROS level upon treatments. For this, 1 × 10^5 cells/well were seeded onto coverslips (VWR International, Radnor, Pennsylvania, PA, USA) placed in 24-well plates and left to grow. […] After treatments, cells were washed with PBS then incubated for 1 h with 10 μM DCFDA solution. The fluorescence intensity of the samples was assessed by an OLYMPUS BX51 microscope with Olympus DP70 camera and was quantified using ImageJ software.

A549 cells = assay: DCFDA staining (intracellular ROS); type: cell-based, human; details: A549, 20 µM, 6 h
Protocol: as §5

MCF-7 KCR cells = assay: DCFDA staining (intracellular ROS); type: cell-based, human; details: 20 µM, 6 h
Protocol: as §5

[6] = type: physicochemical; details: cligand = 20 µM
Protocol: An Orion 710A pH-meter equipped with a Metrohm combined electrode (type 6.0234.100) and a Metrohm 665 Dosimat burette were used for the UV–vis titrations at 25.0 ± 0.1 °C. Ionic strength of 0.10 M (KCl) was used to keep the activity coefficients constant. The titrations were performed with carbonate-free KOH solution of known concentration (0.10 M) with 30% (v/v) DMSO content. […] The average water ionization constant (pKw) is 14.54 ± 0.05 in the 30% (v/v) DMSO/H2O mixture. Argon was always passed over the solutions during the titrations. An Agilent Cary 8454 diode array spectrophotometer was used to record the UV–vis spectra at an interval of 200–800 nm. The path length was 2 cm. Spectrophotometric titrations were performed using a 0.1 M KOH titrant solution with 30% (v/v) DMSO on samples with 30% (v/v) DMSO containing HCl, KCl and the ligand at 20 μM concentration in the pH range 2.0–12.5 in the absence or in the presence of 1 or 0.5 equiv. Cu(II) ions. Proton dissociation constants (Ka) of the TSC ligands, the overall stability constants (β) of the Cu(II) complexes and the UV–vis spectra of the individual species were calculated by the computer program PSEQUAD [41] as was done in our previous works.

[7] = tested on: MCF-7 breast cancer cell line; set-up: method as in doi:10.1039/D0NJ01070G, PMID 34453218, PMID 33951554; details: cited from earlier work
[8] = cited from earlier work
[9] = Cu(II) complex (25 µM) with GSH (1.25 mM), pH 7.4, anaerobic; cited from earlier work
[10] = 30% (v/v) DMSO/H2O, T = 25.0 °C, I = 0.1 M (KCl)

Row | MIC (S. aureus ATCC 25928) [µM] | MIC (E. faecalis ATCC 29212) [µM] | IC50 [1] [µM] | formal potential E’ vs. Ag/AgCl/3M KCl [3] | SMILES | IC50 (DU-145) [µM] | IC50 (MCF-7 KCR) [µM] | IC50 (A549) [µM] | IC50 (MCF-7) [µM] | % Scavenging Effect [1] [%] | DNA double-strand breaks (γH2AX) vs untreated control cells [5] | TEAC (Trolox equivalent antioxidant capacity) [1] | further results
1 | 50 | >100 | > 50 | +0.10 V | C[C@]12CC[C@@H]3c4cc(/C=N/N=C(N)[O-])c([O-])cc4CC[C@H]3[C@@H]1CC[C@@H]2O.O.[Cu+2] [Cu(II)-estradiol-SC] | > 20 | > 20 | > 20 | > 20 | 8.5 | – | – | effect on cell viability (in words) (DU-145; up to 20 µM, 24 h): neither the estradiol-SC nor the Cu(II)-estradiol-SC complex exhibit any harmful effect; effect on cell viability (in words) (MCF-7 KCR; up to 20 µM, 24 h): only slightly toxic; effect on cell viability (in words) (A549; up to 20 µM, 24 h): only slightly toxic; effect on cell viability (in words) (MCF-7; up to 20 µM, 24 h): neither the estradiol-SC nor the Cu(II)-estradiol-SC complex exhibit any harmful effect; kobs [2]: rapid reduction of Cu(II); reduction by ascorbic acid (in words) [4]: remarkable spectral changes
2 | 3.125 | 12.5 | 15.7 | +0.31 V | C[C@]12CC[C@@H]3c4cc(/C=N/N=C(N)[S-])c([O-])cc4CC[C@H]3[C@@H]1CC[C@@H]2O.O.[Cu+2] [Cu(II)-estradiol-TSC] | > 20 | 13 ± 1.09 | 10 ± 1.04 | 8.4 ± 1.11 | 90.8 | None of these treatments caused a higher degree of DNA damage | 0.8 | intracellular amount of ROS vs DMSO control (DU-145 cells): significantly increased; intracellular amount of ROS vs DMSO control (A549 cells): significantly increased; intracellular amount of ROS vs DMSO control (MCF-7 KCR cells): significantly increased
3 | >100 | >100 | 17.8 | – | CC12CCC3c4cc(C=NNC(N)=S)c(O)cc4CCC3C1CCC2=O (stereo not shown) [estrone-TSC, reference compound] | > 20 | > 20 | 16.7 ± 1.03 | > 20 | 49.8 | None of these treatments caused a higher degree of DNA damage | 0.7 | pCu5.0 ([6]; calculated at pH 5.0, cCu(II) = 20 µM): 7.7; pCu6.0 ([6]; estimated at pH 6.0, cCu(II) = 20 µM): 9.2; IC50 [7]: 6.4 µM; logβ [CuLH−1] [8, 10]: 9.44 ^2; logβ [CuL]+ [8, 10]: 13.18 ^2; pCu7.4 ([8]; pH 7.4, cCu(II) = 20 µM, cligand = 20 µM): 11.9 ^2; kobs [9]: 0.13 ^3 min^−1
